pIC50: −log10 of the molar value.
Experiments:
[1] = target: T1, Bone morphogenetic protein 1 (Homo sapiens, UniProt P13497); test: Inhibition of C-terminal FLAG-6x-His epitope tagged and N-terminal human RAGE signal sequence tagged human BMP1 (23 to 721 amino acids) expressed in CHO-E1 cells pre-incubated for 10 mins before promyostatin peptide substrate addition and measured after 30 mins using 50 nM BMP1 by FRET based assay; assay type: cell-based
T1 sequence (P13497 whole entry): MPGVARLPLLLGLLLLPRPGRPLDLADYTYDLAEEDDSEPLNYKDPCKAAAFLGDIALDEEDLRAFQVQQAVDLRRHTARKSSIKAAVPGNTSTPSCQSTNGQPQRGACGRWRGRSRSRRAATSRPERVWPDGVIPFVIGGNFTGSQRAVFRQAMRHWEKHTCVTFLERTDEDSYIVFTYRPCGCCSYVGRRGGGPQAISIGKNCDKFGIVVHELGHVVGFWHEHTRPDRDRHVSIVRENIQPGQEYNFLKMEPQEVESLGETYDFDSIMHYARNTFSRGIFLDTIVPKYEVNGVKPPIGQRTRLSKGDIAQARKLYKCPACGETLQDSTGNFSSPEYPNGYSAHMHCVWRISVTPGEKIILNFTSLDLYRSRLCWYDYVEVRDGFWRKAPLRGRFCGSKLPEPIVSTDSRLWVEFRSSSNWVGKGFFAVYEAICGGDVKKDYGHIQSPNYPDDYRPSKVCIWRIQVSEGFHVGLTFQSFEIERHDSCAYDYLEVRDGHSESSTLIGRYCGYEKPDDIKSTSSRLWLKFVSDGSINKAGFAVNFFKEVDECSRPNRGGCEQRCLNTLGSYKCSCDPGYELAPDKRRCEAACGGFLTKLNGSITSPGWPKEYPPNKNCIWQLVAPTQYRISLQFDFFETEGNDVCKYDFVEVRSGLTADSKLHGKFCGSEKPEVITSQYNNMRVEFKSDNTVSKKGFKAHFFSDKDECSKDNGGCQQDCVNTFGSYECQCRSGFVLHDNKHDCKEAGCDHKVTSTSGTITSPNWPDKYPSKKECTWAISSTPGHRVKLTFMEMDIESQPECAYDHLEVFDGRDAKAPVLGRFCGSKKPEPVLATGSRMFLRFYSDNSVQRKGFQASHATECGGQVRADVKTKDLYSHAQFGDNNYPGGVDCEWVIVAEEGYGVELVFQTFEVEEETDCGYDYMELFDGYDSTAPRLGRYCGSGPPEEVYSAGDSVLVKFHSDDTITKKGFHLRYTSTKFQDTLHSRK

[2] = target: Tolloid-like protein 1 (Homo sapiens, UniProt O43897, I156V/N221S/V284A); test: Inhibition of recombinant human TLL1 I156V/N221S/V284A mutant expressed in CHOE1A cells pre-incubated for 10 mins before promyostatin peptide substrate addition and measured after 60 mins by FRET based assay; assay type: cell-based
Sequence of Tolloid-like protein 1 (O43897 148-1013 I156V/N221S/V284A limits assumed): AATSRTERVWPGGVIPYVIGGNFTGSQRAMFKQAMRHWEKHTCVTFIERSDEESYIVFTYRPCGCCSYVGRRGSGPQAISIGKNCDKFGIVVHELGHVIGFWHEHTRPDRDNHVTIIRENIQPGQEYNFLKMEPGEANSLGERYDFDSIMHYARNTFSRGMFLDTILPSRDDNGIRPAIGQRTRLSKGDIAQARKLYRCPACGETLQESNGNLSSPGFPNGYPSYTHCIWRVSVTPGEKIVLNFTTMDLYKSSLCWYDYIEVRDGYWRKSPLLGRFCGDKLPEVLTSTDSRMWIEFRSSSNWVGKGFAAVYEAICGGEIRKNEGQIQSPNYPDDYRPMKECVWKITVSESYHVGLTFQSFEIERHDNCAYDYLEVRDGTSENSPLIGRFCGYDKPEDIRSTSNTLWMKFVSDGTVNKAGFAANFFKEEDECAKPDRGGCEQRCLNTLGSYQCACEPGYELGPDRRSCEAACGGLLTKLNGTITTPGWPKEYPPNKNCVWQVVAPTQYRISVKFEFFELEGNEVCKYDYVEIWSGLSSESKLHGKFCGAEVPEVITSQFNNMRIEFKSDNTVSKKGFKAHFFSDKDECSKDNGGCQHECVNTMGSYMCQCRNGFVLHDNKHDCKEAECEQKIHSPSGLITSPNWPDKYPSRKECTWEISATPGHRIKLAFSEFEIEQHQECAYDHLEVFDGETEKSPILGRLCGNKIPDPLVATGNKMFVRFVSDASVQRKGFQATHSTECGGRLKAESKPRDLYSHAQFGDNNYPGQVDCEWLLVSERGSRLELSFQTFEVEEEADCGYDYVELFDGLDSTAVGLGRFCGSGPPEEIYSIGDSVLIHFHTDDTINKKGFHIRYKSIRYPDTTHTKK

[3] = target: T2, Tolloid-like protein 2 (Homo sapiens, UniProt Q9Y6L7); test: Inhibition of C-terminal Avi-6x-His epitope tagged and N-terminal human RAGE signal sequence tagged recombinant human TLL2 (26 to 1015 amino acids) expressed in CHOE1A cells incubated for 60 mins with promyostatin peptide substrate by FRET based assay; assay type: cell-based
T2 sequence (Q9Y6L7 whole entry): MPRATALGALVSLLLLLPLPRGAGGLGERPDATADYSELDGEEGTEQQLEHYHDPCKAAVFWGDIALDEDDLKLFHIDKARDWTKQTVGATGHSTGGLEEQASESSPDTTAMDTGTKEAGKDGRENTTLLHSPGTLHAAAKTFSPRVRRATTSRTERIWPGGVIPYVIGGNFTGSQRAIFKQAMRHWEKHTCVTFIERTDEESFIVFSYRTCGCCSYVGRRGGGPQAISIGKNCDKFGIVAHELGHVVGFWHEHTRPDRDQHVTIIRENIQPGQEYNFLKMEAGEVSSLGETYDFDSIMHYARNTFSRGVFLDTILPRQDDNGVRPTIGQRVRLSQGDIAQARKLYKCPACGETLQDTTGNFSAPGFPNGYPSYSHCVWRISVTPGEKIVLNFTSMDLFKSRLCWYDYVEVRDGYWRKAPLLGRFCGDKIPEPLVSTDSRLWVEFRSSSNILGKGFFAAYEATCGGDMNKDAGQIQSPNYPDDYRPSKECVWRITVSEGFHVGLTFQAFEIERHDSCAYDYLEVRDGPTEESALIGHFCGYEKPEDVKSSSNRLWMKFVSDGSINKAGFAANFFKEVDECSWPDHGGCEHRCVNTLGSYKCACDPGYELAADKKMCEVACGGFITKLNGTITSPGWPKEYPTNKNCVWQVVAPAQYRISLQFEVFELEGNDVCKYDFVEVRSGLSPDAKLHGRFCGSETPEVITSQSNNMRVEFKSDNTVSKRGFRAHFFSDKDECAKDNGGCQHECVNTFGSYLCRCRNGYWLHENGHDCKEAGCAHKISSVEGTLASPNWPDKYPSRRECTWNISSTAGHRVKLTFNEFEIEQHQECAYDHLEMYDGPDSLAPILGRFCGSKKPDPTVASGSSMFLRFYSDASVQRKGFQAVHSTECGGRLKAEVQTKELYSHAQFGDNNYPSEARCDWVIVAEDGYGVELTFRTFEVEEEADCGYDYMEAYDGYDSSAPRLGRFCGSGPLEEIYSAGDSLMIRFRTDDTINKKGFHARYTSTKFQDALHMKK

[4] = target: T1, Bone morphogenetic protein 1; test: Inhibition of C-terminal FLAG-6x-His epitope tagged and N-terminal human RAGE signal sequence tagged human BMP1 (23 to 721 amino acids) expressed in CHO-E1 cells pre-incubated for 10 mins before promyostatin peptide substrate addition and measured after 60 mins using 0.5 nM BMP1 by FRET based assay; assay type: cell-based
[5] = Reduction in PICP levels in human cardiac fibroblasts incubated for 24 to 48 hrs by ELISA; assay type: functional
In short: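 Human cardiac fibroblasts no older than passage 6 were seeded at 10,000 to 15,000 cells per well in 96-well plates and, one day later, exposed for 24 to 48 hr at 37° C to treatment in ficoll crowding EMEM with 100 μM ascorbic acid and less than 0.3% DMSO. IC50 was determined in GraphPad Prism from a log(inhibitor)-response fit of procollagen I C-terminal propeptide levels in the medium, measured by Quidel ELISA and expressed relative to untreated controls.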

Compound	pIC50 [1]	pIC50 [2]	pIC50 [3]	pIC50 [4]	pIC50 [5]
CCCCC[C@@H](C(=O)NCNC(=O)c1ccc(-c2ccc(C(=O)N[C@H](CC(=O)O)C(=O)O)cc2)o1)[C@@H](CC)N(O)C=O	> 6.70	> 6.40	> 6.10	> 6.90	> 5.40
CCCCC[C@@H](C(=O)NCNC(=O)c1ccc(-c2ccc(C(=O)O)c(CC(=O)O)c2)o1)[C@@H](CC)N(O)C=O	> 6.70	> 6.40	> 6.10	> 6.90	> 5.40
CCCCC[C@H](CN(O)C=O)C(=O)NCNC(=O)c1ccc(-c2cccc(SCC)c2)o1	> 6.70	> 6.40	> 6.10	> 6.90	> 5.40
CCCCC[C@@H](C(=O)NCNC(=O)c1ccc(-c2ccc(C(=O)N[C@@H](CC(=O)O)C(=O)O)c(C)c2)o1)[C@@H](CC)N(O)C=O	> 6.70	> 6.40	> 6.10	> 6.90	> 5.40
CCCCC[C@@H](C(=O)NCNC(=O)c1ccc(-c2cc(OCC(N)=O)cc(C(=O)O)c2)o1)[C@@H](CC)N(O)C=O	> 6.70	> 6.40	> 6.10	> 6.90	> 5.40
CCCCC[C@@H](C(=O)NCNC(=O)c1ccc(-c2ccc(C(=O)N[C@@H](CCC(=O)O)C(=O)O)cc2)o1)[C@@H](CC)N(O)C=O	> 6.70	> 6.40	> 6.10	> 6.90	> 5.40
CCCCC[C@@H](C(=O)NCNC(=O)c1ccc(-c2cc(O)cc(P(=O)(O)O)c2)o1)[C@@H](CC)N(O)C=O	> 6.70	> 6.40	> 6.10	> 6.90	> 5.40
CCCCC[C@@H](C(=O)NCNC(=O)c1ccc(-c2cc(OCC(=O)O)cc(C(=O)N[C@@H](CC(=O)O)C(=O)O)c2)o1)[C@@H](CC)N(O)C=O	> 6.70	> 6.40	> 6.10	> 6.90	> 5.40
CCCCC[C@H](CN(O)C=O)C(=O)NCNC(=O)c1ccc(-c2cccc([N+](=O)[O-])c2)o1	> 6.70	> 6.40	> 6.10	> 6.90	> 5.40
CCCCC[C@H](CN(O)C=O)C(=O)NCNC(=O)c1ccc(-c2cccc(OCC(F)F)c2)o1	> 6.70	> 6.40	> 6.10	> 6.90	> 5.40
CCCCC[C@@H](C(=O)NCNC(=O)c1ccc(-c2ccc(C(=O)O)c(C(=O)O)c2)o1)[C@@H](CC)N(O)C=O	> 6.70	> 6.40	> 6.10	> 6.90	> 5.40
CCCCC[C@@H](C(=O)NCNC(=O)c1ccc(-c2ccc(C(=O)N[C@@H](CCC(=O)O)C(=O)O)c(OCC)c2)o1)[C@@H](CC)N(O)C=O	> 6.70	> 6.40	> 6.10	> 6.90	> 5.40
CCCCC[C@@H](C(=O)NCNC(=O)c1ccc(-c2cc(CN(C)CC(=O)O)cc(OCC)c2)o1)[C@@H](CC)N(O)C=O	> 6.70	> 6.40	> 6.10	> 6.90	> 5.40
CCCCC[C@@H](C(=O)NCNC(=O)c1ccc(-c2cc(CNCP(=O)(O)O)cc(OCC)c2)o1)[C@@H](CC)N(O)C=O	> 6.70	> 6.40	> 6.10	> 6.90	> 5.40
CCCCC[C@@H](C(=O)NCNC(=O)C1CCC(c2cc(OCC)cc(P(=O)(O)O)c2)O1)[C@@H](CC)N(O)C=O (stereo not given in full)	> 6.70	> 6.40	> 6.10	> 6.90	> 5.40
CCCCC[C@@H](C(=O)NCNC(=O)c1ccc(-c2cc(OCC)cc(C(=O)NCP(=O)(O)O)c2)o1)[C@@H](CC)N(O)C=O	> 6.70	> 6.40	> 6.10	> 6.90	> 5.40
CCOc1cc(C(=O)O)c(O)c(-c2ccc(C(=O)NCNC(=O)[C@H](CCc3ccccc3)[C@@H](CC)N(O)C=O)o2)c1	> 6.70	> 6.40	> 6.10	> 6.90	> 5.40
CCCCC[C@H](CN(O)C=O)C(=O)NCNC(=O)c1ccc(-c2cccc(P(=O)(O)O)c2)o1	> 6.70	> 6.40	> 6.10	> 6.90	> 5.40
CCCCC[C@@H](C(=O)NCNC(=O)c1ccc(-c2ccc(C(=O)N[C@@H](CC(=O)O)C(=O)O)cc2)o1)[C@@H](CC)N(O)C=O	> 6.70	> 6.40	> 6.10	> 6.90	> 5.40
CCOc1cc(-c2ccc(C(=O)NCNC(=O)[C@H](CCc3ccc4ccccc4c3)[C@@H](CC)N(O)C=O)o2)ccc1C(=O)N[C@@H](CC(=O)O)C(=O)O	> 6.70	> 6.40	> 6.10	> 6.90	> 5.40
CC[C@H]([C@@H](CCc1ccc(F)cc1F)C(=O)NCNC(=O)c1ccc(-c2cc(OCC(=O)O)cc(C(=O)O)c2O)o1)N(O)C=O	> 6.70	> 6.40	> 6.10	> 6.90	> 5.40
CCCCC[C@H](CN(O)C=O)C(=O)NCNC(=O)c1ccc(-c2cccc(SC)c2)o1	> 6.70	> 6.40	> 6.10	> 6.90	> 5.40
CCCCC[C@@H](C(=O)NCNC(=O)c1ccc(-c2ccc(C(=O)N(CC(=O)O)CC(=O)O)cc2)o1)[C@@H](CC)N(O)C=O	> 6.70	> 6.40	> 6.10	> 6.90	> 5.40
CCCCC[C@@H](C(=O)NCNC(=O)c1ccc(-c2cc(OCC)cc(P(=O)(O)OC)c2)o1)[C@@H](CC)N(O)C=O	> 6.70	> 6.40	> 6.10	> 6.90	> 5.40
CCCCC[C@H](CN(O)C=O)C(=O)NCNC(=O)c1ccc(-c2ccc3cnn(C)c3c2)o1	> 6.70	> 6.40	> 6.10	> 6.90	> 5.40

Reference: ChEMBL document CHEMBL4476867, “Hydroxy formamide derivatives and their use” (2016)
